Measurements as given in patent US10828315B2 (Madrigal Pharmaceuticals, Inc., priority 2013, dated 2020).

test system: HER2; assay: HER2 degradation assay with BT-474 cell line (Example 12, FACS); assay type: cell-based, human; details: not given
Excerpt: HER2 has emerged as a key target for anticancer drugs due to its intrinsic involvement in the phosphatidylinositol-3-kinase-Akt/protein kinase B (PI3K-Akt) and the mitogen-activated protein kinase (MAPK) pathways, both of which suppress apoptosis and promote tumor cell survival, gene transcription, angiogenesis, cellular proliferation, migration, mitosis, and differentiation. The degradation of HER2 is a measure of efficacy of anticancer therapeutics that target Hsp90. Accordingly, the SDC-TRAP molecules of the invention that comprise a binding moiety that binds Hsp90 were tested in the following HER2 degradation assay.
BT-474 cells (human breast cancer cell line ATCC HTB-20) were obtained from ATCC and seeded into 12-well tissue culture plates at 0.2×10^6/1.8 mL/well. […] Each test compound was titrated in 4-fold dilutions from 5 μM to 78 nM with DMSO and 200 μL of the titration was added to each well of the cell plate. The DMSO final concentration was 0.2%. Cells were incubated overnight at 37° C. in 5% CO2.
Media was decanted from the plate, cells were washed 1× in PBS. 400 μL trypsin (EDTA) per well was added, and the cells were incubated for 2 to 3 minutes. Cells were collected into FACS tubes containing 1 ml culture medium to neutralize the trypsin and were centrifuged for 5 minutes at 1200 rpm. Supernatant was decanted and the cells were resuspended in 5 μL FITC (anti HER2/nu)/200 μL staining buffer (1×PBS+1% FBS+0.05% Sodium Azide)/tube. Controls were 5 μL IgG isotype control and staining buffer only. Tubes were incubated for 30 minutes in the dark at room temperature. 1 mL staining buffer was added to each tube and the tubes were centrifuged for 6 minutes at 1200 rpm. The supernatant was decanted and 300 μL staining buffer was added to each tube, which was store at 4° C. fpr FACS (cytometer) analysis. The cytometer readout was normalized and the potency of each compound is evaluated with IC50 calculated with XLfit™ software.

First: CCc1c2c(nc3ccc(O)cc13)-c1cc3c(c(=O)n1C2)COC(=O)[C@@]3(CC)OC(=O)N(C)CCCN1CCN(Cc2ccc(-n3c(O)nnc3-c3cc(C(C)C)c(O)cc3O)cc2)CC1 [SDC-TRAP-0084, (S)-4,11-diethyl-9-hydroxy-3,14-dioxo-3,4,12,14-tetrahydro-1H-pyrano[3′,4′:6,7]indolizino[1,2-b]quinolin-4-yl (3-(4-(4-(3-(2,4-dihydroxy-5-isopropylphenyl)-5-hydroxy-4H-1,2,4-triazol-4-yl)benzyl)piperazin-1-yl)propyl)(methyl)carbamate]
Second: CCc1c2c(nc3ccc(O)cc13)-c1cc3c(c(=O)n1C2)COC(=O)C3(CC)OC(=O)N1CCN(c2ccc(-n3c(O)nnc3-c3cc(C(C)C)c(O)cc3O)cc2)CC1 (stereo not drawn) [SDC-TRAP-0081, 4,11-diethyl-9-hydroxy-3,14-dioxo-3,4,12,14-tetrahydro-1H-pyrano[3′,4′:6,7]indolizino[1,2-b]quinolin-4-yl-4-(4-(3-(2,4-dihydroxy-5-isopropylphenyl)-5-hydroxy-4H-1,2,4-triazol-4-yl)phenyl)piperazine-1-carboxylate]
The IC50 of the first is 1.8-fold higher: 1130 nM for the first, 622 nM for the second. The second is the more potent here.

Going from CCc1c2c(nc3ccc(OC(=O)N4CCC(N5CCN(c6ccc(-n7c(O)nnc7-c7cc(C(C)C)c(O)cc7O)cc6)CC5)CC4)cc13)-c1cc3c(c(=O)n1C2)COC(=O)C3(O)CC (stereo not drawn) [SDC-TRAP-0101, 4,11-diethyl-4-hydroxy-3,14-dioxo-3,4,12,14-tetrahydro-1H-pyrano[3′,4′:6,7]indolizino[1,2-b]quinolin-9-yl 4-(4-(4-(3-(2,4-dihydroxy-5-isopropylphenyl)-5-hydroxy-4H-1,2,4-triazol-4-yl)phenyl)piperazin-1-yl)piperidine-1-carboxylate] to CCc1c2c(nc3ccc(O)cc13)-c1cc3c(c(=O)n1C2)COC(=O)C3(CC)OC(=O)C1CCN(C(=O)CN2CCN(c3ccc(-n4c(O)nnc4-c4cc(C(C)C)c(O)cc4O)cc3)CC2)CC1 (stereo not drawn) [SDC-TRAP-0111, 4,11-Diethyl-9-hydroxy-3,14-dioxo-3,4,12,14-tetrahydro-1H-pyrano[3′,4′:6,7]indolizino[1,2-b]quinolin-4-yl 1-(2-(4-(4-(3-(2,4-dihydroxy-5-isopropylphenyl)-5-hydroxy-4H-1,2,4-triazol-4-yl)phenyl)piperazin-1-yl)acetyl)piperidine-4-carboxylate], the IC50 rises from 280 nM to over 5000 nM.

In the case of CCc1c2c(nc3ccc(OC(=O)N(C)CC(=O)N4CCC(CCn5ccc6cc(-n7c(O)nnc7-c7cc(C(C)C)c(O)cc7O)ccc65)CC4)cc13)-c1cc3c(c(=O)n1C2)COC(=O)[C@]3(O)CC [SDC-TRAP-0207, (S)-4,11-diethyl-4-hydroxy-3,14-dioxo-3,4,12,14-tetrahydro-1H-pyrano[3′,4′:6,7]indolizino[1,2-b]quinolin-9-yl (2-(4-(2-(5-(3-(2,4-dihydroxy-5-isopropylphenyl)-5-hydroxy-4H-1,2,4-triazol-4-yl)-1H-indol-1-yl)ethyl)piperidin-1-yl)-2-oxoethyl)(methyl)carbamate], the IC50 is reported as over 5000 nM.

test system: not listed separately; assay: Mouse plasma stability protocol, up to 1 h (Examples 16-18); details: % Remaining of parent after 1 h incubation in mouse plasma at 37° C. (10 μM)

Compared with CCc1c2c(nc3ccc(O)cc13)-c1cc3c(c(=O)n1C2)COC(=O)[C@@]3(CC)OC(=O)CN1CCC(CCc2ccc(-n3c(O)nnc3-c3cc(C(C)C)c(O)cc3O)cc2)CC1 [SDC-TRAP-0106, (S)-4,11-diethyl-9-hydroxy-3,14-dioxo-3,4,12,14-tetrahydro-1H-pyrano[3′,4′:6,7]indolizino[1,2-b]quinolin-4-yl 2-(4-(4-(3-(2,4-dihydroxy-5-isopropylphenyl)-5-hydroxy-4H-1,2,4-triazol-4-yl)phenethyl)piperidin-1-yl)acetate], CCc1c2c(nc3ccc(O)cc13)-c1cc3c(c(=O)n1C2)COC(=O)[C@@]3(CC)OC(=O)CN1CCC(CCn2ccc3cc(-n4c(O)nnc4-c4cc(C(C)C)c(O)cc4O)ccc32)CC1 [SDC-TRAP-0107, (S)-4,11-diethyl-9-hydroxy-3,14-dioxo-3,4,12,14-tetrahydro-1H-pyrano[3′,4′:6,7]indolizino[1,2-b]quinolin-4-yl 2-(4-(2-(5-(3-(2,4-dihydroxy-5-isopropylphenyl)-5-hydroxy-4H-1,2,4-triazol-4-yl)-1H-indol-1-yl)ethyl)piperidin-1-yl)acetate] is lower in “% Remaining (1 h)” value: 114% for the first, 111% for the second.

Compared with CCNC(=O)c1nnc(-c2cc(C(C)C)c(O)cc2O)n1-c1ccc(S(=O)(=O)N2CCC(C(=O)N3CCN(C(=O)Oc4ccc5nc6c(c(CC)c5c4)Cn4c-6cc5c(c4=O)COC(=O)C5(O)CC)CC3)CC2)cc1 (stereo not drawn) [SDC-TRAP-0383, 4,11-diethyl-4-hydroxy-3,14-dioxo-3,4,12,14-tetrahydro-1H-pyrano[3′,4′:6,7]indolizino[1,2-b]quinolin-9-yl 4-(1-((4-(3-(2,4-dihydroxy-5-isopropylphenyl)-5-(ethylcarbamoyl)-4H-1,2,4-triazol-4-yl)phenyl)sulfonyl)piperidine-4-carbonyl)piperazine-1-carboxylate], CCNC(=O)c1nnc(-c2cc(C(C)C)c(O)cc2O)n1-c1ccc2c(c1)CN(S(=O)(=O)C1CCN(C(=O)Oc3ccc4nc5c(c(CC)c4c3)Cn3c-5cc4c(c3=O)COC(=O)C4(O)CC)CC1)C2 (stereo not drawn) [SDC-TRAP-0391, 4,11-diethyl-4-hydroxy-3,14-dioxo-3,4,12,14-tetrahydro-1H-pyrano[3′,4:6,7]indolizino[1,2-b]quinolin-9-yl 4-((5-(3-(2,4-dihydroxy-5-isopropylphenyl)-5-(ethylcarbamoyl)-4H-1,2,4-triazol-4-yl)isoindolin-2-yl)sulfonyl)piperidine-1-carboxylate] is lower in “% Remaining (1 h)” value: 47.6% for the first, 15.2% for the second.

Compared with CCc1c2c(nc3ccc(O)cc13)-c1cc3c(c(=O)n1C2)COC(=O)C3(CC)OC(=O)N(C)Cc1ccc(OC(=O)N2CCN(Cc3ccc(-n4c(O)nnc4-c4cc(C(C)C)c(O)cc4O)cc3)CC2)cc1 (stereo not drawn) [SDC-TRAP-0356, 4-(((((4,11-diethyl-9-hydroxy-3,14-dioxo-3,4,12,14-tetrahydro-1H-pyrano[3′,4′:6,7]indolizino[1,2-b]quinolin-4-yl)oxy)carbonyl)(methyl)amino)methyl)phenyl 4-(4-(3-(2,4-dihydroxy-5-isopropylphenyl)-5-hydroxy-4H-1,2,4-triazol-4-yl)benzyl)piperazine-1-carboxylate], CCc1c2c(nc3ccc(OC(=O)N(C)CC(=O)N4CCC(CCn5ccc6cc(-n7c(O)nnc7-c7cc(C(C)C)c(O)cc7O)ccc65)CC4)cc13)-c1cc3c(c(=O)n1C2)COC(=O)[C@]3(O)CC [SDC-TRAP-0337, (S)-4,11-diethyl-4-hydroxy-3,14-dioxo-3,4,12,14-tetrahydro-1H-pyrano[3′,4′: 6,7]indolizino[1,2-b]quinolin-9-yl (2-(4-(2-(5-(3-(2,4-dihydroxy-5-isopropylphenyl)-5-hydroxy-4H-1,2,4-triazol-4-yl)-1H-indol-1-yl)ethyl)piperidin-1-yl)-2-oxoethyl)(methyl)carbamate] is higher in “% Remaining (1 h)” value: 70.9% for the first, 77.3% for the second.

Compared with CCNC(=O)c1nnc(-c2cc(C(C)C)c(O)cc2O)n1-c1ccc(C(=O)N2CCN(c3cc(C)c(OC(=O)Nc4cccc5c4C(=O)N(C4CCC(=O)NC4=O)C5=O)c(C)c3)CC2)cc1 (stereo not drawn) [SDC-TRAP-0400, 4-(4-(4-(3-(2,4-dihydroxy-5-isopropylphenyl)-5-(ethylcarbamoyl)-4H-1,2,4-triazol-4-yl)benzoyl)piperazin-1-yl)-2,6-dimethylphenyl (2-(2,6-dioxopiperidin-3-yl)-1,3-dioxoisoindolin-4-yl)carbamate], CCNC(=O)c1nnc(-c2cc(C(C)C)c(O)cc2O)n1-c1ccc(C(=O)N2CCN(c3ccc(OC(=O)Nc4cccc5c4C(=O)N(C4CCC(=O)NC4=O)C5=O)c(OC)c3)CC2)cc1 (stereo not drawn) [SDC-TRAP-0398, 4-(4-(4-(3-(2,4-dihydroxy-5-isopropylphenyl)-5-(ethylcarbamoyl)-4H-1,2,4-triazol-4-yl)benzoyl)piperazin-1-yl)-2-methoxyphenyl (2-(2,6-dioxopiperidin-3-yl)-1,3-dioxoisoindolin-4-yl)carbamate] is lower in “% Remaining (1 h)” value: 70.4% for the first, 1.40% for the second.

Going from CCNC(=O)c1nnc(-c2cc(C(C)C)c(O)cc2O)n1-c1ccc2c(c1)CN(C(=O)Oc1ccc3nc4c(c(CC)c3c1)Cn1c-4cc3c(c1=O)COC(=O)C3(O)CC)C2 (stereo not drawn) [SDC-TRAP-0392, 4,11-diethyl-4-hydroxy-3,14-dioxo-3,4,12,14-tetrahydro-1H-pyrano[3′,4′:6,7]indolizino[1,2-b]quinolin-9-yl 5-(3-(2,4-dihydroxy-5-isopropylphenyl)-5-(ethylcarbamoyl)-4H-1,2,4-triazol-4-yl)isoindoline-2-carboxylate] to CCc1c2c(nc3ccc(OC(=O)N4CCC(N(C)CCNC(=O)c5nnc(-c6cc(C(C)C)c(O)cc6O)n5-c5cccnc5)CC4)cc13)-c1cc3c(c(=O)n1C2)COC(=O)C3(O)CC (stereo not drawn) [SDC-TRAP-0358], the “% Remaining (1 h)” value falls from 44.7% to 41.0%.
